According to ChEMBL document CHEMBL3045220, “Design, characterization, computational studies, and pharmacological evaluation of substituted-N-[(1E) substituted-phenylmethylidene]benzohydrazide analogs” (Med Chem Res, 2013):
In brackets after ≈: the same amount, converted by molar mass.

Tests used:
[1] = Antioxidant activity assessed as Mo(6) reduction activity after 60 min by UV-Vis spectrophotometric analysis; format: functional
[2] = tested on: Candida albicans; assay: Antifungal activity against Candida albicans by agar well diffusion method; format: functional; conditions: for MIC: Candida albicans
[3] = tested on: Aspergillus niger; assay: Antifungal activity against Aspergillus niger by agar well diffusion method; format: functional; conditions: for MIC: Aspergillus niger
[4] = tested on: Escherichia coli; assay: Antibacterial activity against Escherichia coli by agar well diffusion method; format: functional; conditions: for MIC: Escherichia coli
[5] = tested on: Pseudomonas aeruginosa; assay: Antibacterial activity against Pseudomonas aeruginosa by agar well diffusion method; format: functional; conditions: for MIC: Pseudomonas aeruginosa
[6] = tested on: Staphylococcus epidermidis; assay: Antibacterial activity against Staphylococcus epidermidis by agar well diffusion method; format: functional; conditions: for MIC: Staphylococcus epidermidis
[7] = Antioxidant activity assessed as H2O2 scavenging activity after 10 min by UV-Vis spectrophotometric analysis; format: functional
[8] = Anti-inflammatory activity assessed as inhibition of albumin denaturation incubated for 15 min at 27 degC followed by incubation at 60 degC for 10 min by UV-Vis spectrophotometric analysis
[9] = tested on: Staphylococcus aureus; assay: Antibacterial activity against Staphylococcus aureus by agar well diffusion method; format: functional; conditions: for MIC: Staphylococcus aureus

SMILES | IC50 [1] [µg/mL] | -logMIC [2] | MIC [2] [µg/mL] | MIC [3] [µg/mL] | -logMIC [4] | MIC [4] [µg/mL] | -logMIC [5] | MIC [5] [µg/mL] | -logMIC [6] | MIC [6] [µg/mL] | IC50 [7] [µg/mL] | IC50 [8] [µg/mL] | -logMIC [9] | MIC [9] [µg/mL] | -logMIC [3]
O=C(N/N=C/c1cccc([N+](=O)[O-])c1)c1ccc(Cl)cc1 | 30 (≈ 98.8 µM) | 1.531 | 34 (≈ 112 µM) | 10 (≈ 32.9 µM) | 1.301 | 20 (≈ 65.9 µM) | 1.4 | 25 (≈ 82.3 µM) | 1.69 | 50 (≈ 165 µM) | 22 (≈ 72.4 µM) | 124 (≈ 408 µM) | 1.301 | 20 (≈ 65.9 µM) | –
O=C(N/N=C/c1ccc(O)cc1)c1ccccc1C(=O)c1ccccc1 | 100 (≈ 290 µM) | 2 | 100 (≈ 290 µM) | 84 (≈ 244 µM) | 1.903 | 80 (≈ 232 µM) | 1.4 | 25 (≈ 72.6 µM) | 1.92 | 84 (≈ 244 µM) | 91 (≈ 264 µM) | 20 (≈ 58.1 µM) | 1.531 | 34 (≈ 98.7 µM) | 1.92
Cc1ccc(/C=N/NC(=O)c2ccc(Cl)cc2)cc1 | 42 (≈ 154 µM) | 1.301 | 20 (≈ 73.3 µM) | 10 (≈ 36.7 µM) | 2.264 | 184 (≈ 675 µM) | 0.81 | 6.5 (≈ 23.8 µM) | 2.3 | 200 (≈ 733 µM) | 4.3 (≈ 15.8 µM) | 86 (≈ 315 µM) | 1.477 | 30 (≈ 110 µM) | –
COc1cc(/C=N/NC(=O)c2ccccc2C(=O)c2ccccc2)ccc1O | 70 (≈ 187 µM) | 1.301 | 20 (≈ 53.4 µM) | 25 (≈ 66.8 µM) | 1.698 | 50 (≈ 134 µM) | 1.69 | 50 (≈ 134 µM) | 2.3 | 200 (≈ 534 µM) | 79 (≈ 211 µM) | 10 (≈ 26.7 µM) | 1.531 | 34 (≈ 90.8 µM) | 1.4
O=C(N/N=C/c1ccccc1[N+](=O)[O-])c1ccccc1C(=O)c1ccccc1 | 42 (≈ 112 µM) | 1.397 | 25 (≈ 67 µM) | – | 1.301 | 20 (≈ 53.6 µM) | 1.4 | 25 (≈ 67 µM) | 1.47 | 30 (≈ 80.3 µM) | 101 (≈ 271 µM) | 75 (≈ 201 µM) | 1.255 | 18 (≈ 48.2 µM) | –
O=C(N/N=C/c1ccccc1O)c1ccc(Cl)cc1 | 50 (≈ 182 µM) | 1.74 | 55 (≈ 200 µM) | 10 (≈ 36.4 µM) | 1.301 | 20 (≈ 72.8 µM) | 1.09 | 12.5 (≈ 45.5 µM) | 1.53 | 34 (≈ 124 µM) | 34 (≈ 124 µM) | 95 (≈ 346 µM) | 1.255 | 18 (≈ 65.5 µM) | 1
O=C(N/N=C/c1ccccc1)c1ccccc1C(=O)c1ccccc1 | 49 (≈ 149 µM) | 2 | 100 (≈ 305 µM) | – | 1.924 | 84 (≈ 256 µM) | 0.81 | 6.5 (≈ 19.8 µM) | 1.69 | 50 (≈ 152 µM) | 152 (≈ 463 µM) | 105 (≈ 320 µM) | 1.477 | 30 (≈ 91.4 µM) | –
OC(Cn1cncn1)(Cn1cncn1)c1ccc(F)cc1F [FLUCONAZOLE] | – | – | 12.5 (≈ 40.8 µM) | 400 (≈ 1310 µM) | – | – | – | – | – | – | – | – | – | – | –
O=C(N/N=C/c1ccc([N+](=O)[O-])cc1)c1ccccc1C(=O)c1ccccc1 | 18 (≈ 48.2 µM) | 1.924 | 84 (≈ 225 µM) | 25 (≈ 67 µM) | 1.397 | 25 (≈ 67 µM) | 1.3 | 20 (≈ 53.6 µM) | 1.47 | 30 (≈ 80.3 µM) | 125 (≈ 335 µM) | 17 (≈ 45.5 µM) | 1.531 | 34 (≈ 91.1 µM) | 1.4
O=C(N/N=C/c1ccc([N+](=O)[O-])cc1)c1ccc(Cl)cc1 | 45 (≈ 148 µM) | 1.301 | 20 (≈ 65.9 µM) | – | 1.531 | 34 (≈ 112 µM) | 1.3 | 20 (≈ 65.9 µM) | – | 100 (≈ 329 µM) | 1.8 (≈ 5.93 µM) | 85 (≈ 280 µM) | 1.301 | 20 (≈ 65.9 µM) | –
CC1(C)S[C@@H]2[C@H](NC(=O)[C@H](N)c3ccc(O)cc3)C(=O)N2[C@H]1C(=O)O [AMOXICILLIN] | – | – | – | – | – | 12.5 (≈ 34.2 µM) | – | 200 (≈ 547 µM) | – | 100 (≈ 274 µM) | – | – | – | 12.5 (≈ 34.2 µM) | –
O=C(N/N=C/c1c(O)ccc2ccccc12)c1ccc(Cl)cc1 | 120 (≈ 369 µM) | 1.531 | 34 (≈ 105 µM) | 100 (≈ 308 µM) | 1.924 | 84 (≈ 259 µM) | 1.4 | 25 (≈ 77 µM) | 2 | 100 (≈ 308 µM) | 69 (≈ 212 µM) | 80 (≈ 246 µM) | 1.477 | 30 (≈ 92.4 µM) | 2
O=C(O)Cc1ccccc1Nc1c(Cl)cccc1Cl [DICLOFENAC] | – | – | – | – | – | – | – | – | – | – | – | 71 (≈ 240 µM) | – | – | –
C=CC1=C(C(=O)O)N2C(=O)[C@@H](NC(=O)/C(=N\OCC(=O)O)c3csc(N)n3)[C@H]2SC1 [CEFIXIME] | – | – | – | – | – | 50 (≈ 110 µM) | – | 400 (≈ 882 µM) | – | 400 (≈ 882 µM) | – | – | – | 50 (≈ 110 µM) | –
COc1cc(/C=N/NC(=O)c2ccc(Cl)cc2)ccc1O | 32 (≈ 105 µM) | 1.924 | 84 (≈ 276 µM) | 50 (≈ 164 µM) | 1.531 | 34 (≈ 112 µM) | 1.4 | 25 (≈ 82 µM) | 2 | 100 (≈ 328 µM) | 0.5 (≈ 1.64 µM) | 160 (≈ 525 µM) | 1.255 | 18 (≈ 59.1 µM) | 1.69
O=C(N/N=C/c1ccc(Cl)cc1)c1ccccc1C(=O)c1ccccc1 | 20 (≈ 55.1 µM) | 2.301 | 200 (≈ 551 µM) | 20 (≈ 55.1 µM) | 1.924 | 84 (≈ 232 µM) | 1.09 | 12.5 (≈ 34.5 µM) | 1.69 | 50 (≈ 138 µM) | 109 (≈ 300 µM) | 54 (≈ 149 µM) | 1.531 | 34 (≈ 93.7 µM) | 1.3
O=C(N/N=C/c1ccccc1O)c1ccccc1C(=O)c1ccccc1 | 15 (≈ 43.6 µM) | 2 | 100 (≈ 290 µM) | 34 (≈ 98.7 µM) | 1.531 | 34 (≈ 98.7 µM) | 1.09 | 12.5 (≈ 36.3 µM) | 1.53 | 34 (≈ 98.7 µM) | 132 (≈ 383 µM) | 35 (≈ 102 µM) | 1.301 | 20 (≈ 58.1 µM) | 1.53
Cc1ccc(/C=N/NC(=O)c2ccccc2C(=O)c2ccccc2)cc1 | 5 (≈ 14.6 µM) | 1.698 | 50 (≈ 146 µM) | – | 2.225 | 168 (≈ 491 µM) | 1.4 | 25 (≈ 73 µM) | 2.3 | 200 (≈ 584 µM) | 84 (≈ 245 µM) | 12 (≈ 35 µM) | 1.531 | 34 (≈ 99.3 µM) | –
